Source: article PMC5114585, “Tomato FK506 Binding Protein 12KD (FKBP12) Mediates the Interaction between Rapamycin and Target of Rapamycin (TOR)” (Frontiers in Plant Science, 2016)

Target: T1, SlFKBP12 (Solanum lycopersicum, UniProt A0A3Q7ERC2)
T1 construct: gene FKBP12
T1 sequence (A0A3Q7ERC2 1-112): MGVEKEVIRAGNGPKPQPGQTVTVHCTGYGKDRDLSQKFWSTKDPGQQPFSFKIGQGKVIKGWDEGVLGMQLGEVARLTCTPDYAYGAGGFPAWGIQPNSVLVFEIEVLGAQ
Test: protein gel shifting assay: native vs denatured extracts of treated seedlings, anti-HA immunoblot
Details: 0, 1, 5, 10 uM rapamycin for 24 h on seedlings; indirect read-out of ternary FKBP12-rapamycin-TOR complex (host Arabidopsis TOR)

Compound: CO[C@H]1C[C@@H]2CC[C@@H](C)[C@@](O)(O2)C(=O)C(=O)N2CCCC[C@H]2C(=O)O[C@H]([C@H](C)C[C@@H]2CC[C@@H](O)[C@H](OC)C2)CC(=O)[C@H](C)/C=C(\C)[C@@H](O)[C@@H](OC)C(=O)[C@H](C)C[C@H](C)/C=C/C=C/C=C/1C [rapamycin]
- protein gel shifting assay: native vs denatured extracts of treated seedlings, a: with increasing of rapamycin, SlFKBP12 protein level displayed a decline trend in native stage
